Laboratory results taken from patent US20140094413A1, “HEPATOCYTE GROWTH FACTOR (HGF) MIMICS AS THERAPEUTIC AGENTS” (WASHINGTON STATE UNIVERSITY, priority 2012, published 2014).
“And” between values parts separate entries of the source, which are not always exact repeats. Equal values may be shown once. “Also recorded” adds a separate entry of the source. Where a SMILES comes first, the peptide text is derived from it. [ ]: non-standard residue; d: D form. The star is where a group is joined. Nle = CCCC[C@H](N)C(=O)O; Hexanoyl = CCCCCC(=O)*; Ahx = NCCCCCC(=O)O

Tests used:
[1] = system: hippocampal neurons; assay: Spinogenesis in mRFP-β-actin transfected dissociated hippocampal neurons; type: cell-based, rat; settings: for Spine numbers (spinogenesis) vs vehicle: 1 μM as printed in FIG. 34 legend; for Number of spines per 50 μm dendrite length: 10^−10 M; for Increase in the number of spines vs vehicle: 5 day treatment; for Spine density, dose dependence: 5 day stimulation, wide range of concentrations
Procedure: (§1) Hippocampal neurons (2×10^5 cells per square cm) were cultured from P1 Sprague Dawley rats on plates coated with poly-L-lysine from Sigma (St. Louis, Mo.; molecular weight 300,000). Hippocampal neurons were maintained in Neurobasal A media from Invitrogen (Carlsbad, Calif.) supplemented with B27 from Invitrogen, 0.5 mM L-glutamine, and […] cytosine-D-arabinofuranoside from Sigma added at 2 days in vitro. Hippocampal neurons were then cultured a further 3-7 days, at which time they were either transfected or treated with various pharmacological reagents as described in (Wayman, Davare et al. 2008).
(§2) Neurons were transfected with mRFP-β-actin on day in vitro 6 (DIV6) using LipofectAMINE™ 2000 (Invitrogen) according to the manufacturer's protocol. This protocol yielded the desired 3-5% transfection efficiency thus enabling the visualization of individual neurons. Higher efficiencies obscured the dendritic arbor of individual neurons. Expression of fluorescently tagged actin allowed clear visualization of dendritic spines, as dendritic spines are enriched in actin. […] On DIV 12 the neurons were fixed (4% paraformaldehyde, 3% sucrose, 60 mM PIPES, 25 mM HEPES, 5 mM EGTA, 1 mM MgCl2, pH 7.4) for 20 min at room temperature and mounted. Slides were dried for at least 20 hours at 4° C. and fluorescent images were obtained with Slidebook 4.2 Digital Microscopy Software driving an Olympus IX81 inverted confocal microscope with a 60× oil immersion lens, NA 1.4 and resolution 0.280 μm Dendritic spine density was measured on primary and secondary dendrites at a distance of at least 150 μm from the soma. Five 50 μm long segments of dendrite from at least 10 neurons per data point were analyzed for each data point reported. Each experiment was repeated at least three times using independent culture preparations. Dendrite length was determined using the National Institutes of Health's Image J 1.41o program (NIH, Bethesda, Md.) and the neurite tracing program Neuron J (Meijering, Jacob et al. 2004) Spines were manually counted.
as §1, with “centimeter)” for “cm)”, “P1-2” for “P1”, “the text or figure legends.” for “(Wayman, Davare et al. 2008).”
as §2, with “DIV12” for “DIV 12”, “Dendrite length was determined using the National Institutes of Health's Image J 1.41o program (NIH, Bethesda, Md.) and the neurite tracing program Neuron J (Meijering, Jacob et al. 2004) Spines were manually counted.” left out

[2] = system: hippocampal neurons; assay: Whole-cell recordings of mEPSCs in dissociated hippocampal neurons; type: cell-based, rat; parameters: unit not given beside the values; settings: 5 days
[3] = system: c-Met receptor; assay: c-Met phosphorylation in acute adult rat hippocampal slices; type: cell-based; settings: 30 minutes
From the text: Adult Sprague-Dawley rats (250 g+) obtained from Harlan Laboratories (Ca, USA) were anesthetized with isofluorane (Vet One™, MWI, Meridian, Id., USA) and decapitated. The brain was rapidly removed and placed into ice-chilled artificial cerebrospinal fluid (aCSF) for approximately 30 s. Both hemispheres were separated by a mid-saggital cut and both hippocampi removed. Slices were sectioned cross- and length-wise (400 μm) to ensure penetrability of the drug, using a McIlwain tissue chopper (Brinkmann, Gomshall, UK) and transferred to a gassed (95% O2/5% CO2) incubation chamber containing aCSF for 90 minutes at room temperature. Slices were transferred to fresh tubes, aCSF was removed by careful suctioning and replaced with aCSF containing vehicle (aCSF+aCSF), 100 ng/ml with carrier free adult recombinant Hepatocyte Growth Factor (HGF) (R and D Systems, MN, USA) in aCSF, 10^−10 M Hinge (Harding lab), […], 10^−10 M Dihexa (Harding lab) in aCSF, 10^−12 M Dihexa in aCSF or 50 ng/ml HGF+10^−12 M Dihexa in aCSF for 30 minutes at 37° C. with gentle rocking. aCSF was removed and the slices were lysed using RIPA buffer (Upstate/Milipore, Billerica, Mass.) and inhibitor Cocktails I and II (Sigma, St. Louis, Mo.), sonicated on ice and clarified by centrifugation for 30 minutes, 13,000 rpm at 4° C. The supernatant was removed from the pellet and stored at −80° C. or processed immediately for gel electrophoresis.
Protein concentration of the samples was quantified using the BCA method (Pierce, Rockford, Ill.) following the manufacturers protocol. Samples were added to SDS-PAGE buffer and boiled for 10 min. before loading onto a 4-12% Bis-Tris pre-cast gel (Invitrogen, Carlsbad, Calif.) for electrophoresis. Proteins were transferred onto PVDF membranes (Bio Rad, Hercules, Calif.) and blocked with AquaBlock™ (New England Biolabs, Ipswich, Mass.) for 1 hour at room temperature (RT). Primary antibody incubation was done in AquaBlock™ with rabbit anti-Met and […] phospho-Met (Tyr1234/1235) (1:1000, Cell Signaling Technology, Danvers, Mass.) overnight at 4° C. Alternating washes were done with PBS and PBST. Secondary antibody (IRDye) (Rockland, Gilbertsville, Pa.) incubations were done in AquaBlock™ for one hour at RT. Blots were imaged using LI-COR Odyssey Infrared Imaging System (LI-COR Biosciences, Lincoln, Nebr.).

[4] = 10^−12 M, acute 30 minute application on DIV 12
[5] = saturating doses: HGF 100 ng/ml, Dihexa 10^−10 M
[6] = sub-threshold doses: HGF 50 ng/ml, Dihexa 10^−12 M

| Compound | Concentration active in stimulating synaptogenesis [1] | Spine numbers (spinogenesis) vs vehicle [1] | Number of spines per 50 μm dendrite length ([1]; 5 days) | Average spine head width ([1]; 10^−12 M) [μm] | Increase in the number of spines vs vehicle ([1]; 10^−12 M) | Mean spine numbers per 50 μm dendrite length [1, 4] | Spine density, dose dependence [1] | mEPSC mean frequency ([2]; 10^−12 M (each)) | c-Met phosphorylation vs vehicle (aCSF) [3, 5] | c-Met phosphorylation vs vehicle (aCSF) [3, 6] | Mean spine numbers per 50 μm dendrite length ([1]; HGF 2.5 ng/ml (sub-threshold), 5 days) | Mean spine numbers per 50 μm dendrite length ([1]; HGF 5 ng/ml, 5 days) | Mean spine numbers per 50 μm dendrite length ([1]; HGF 10 ng/ml, 5 days) | Mean spine numbers per 50 μm dendrite length ([1]; HGF 20 ng/ml, 5 days) | mEPSC mean frequency ([2]; HGF 10 ng/ml) |
| --- | --- | --- | --- | --- | --- | --- | --- | --- | --- | --- | --- | --- | --- | --- | --- |
| CCCCCC(=O)N[C@@H](Cc1ccc(O)cc1)C(=O)N[C@H](C(=O)NCCCCCC(N)=O)[C@@H](C)CC [Dihexa, N-hexanoic-Tyr-Ile-(6)-aminohexanoic amide] (Hexanoyl-Tyr-Ile-[Ahx]-NH2) | 10^−12 M | dramatic increase in spine numbers | 11 spines per 50 μm dendrite length | 0.80 | ~3 fold | 23.9 spines per 50 μm dendrite length | dose-dependently stimulate spinogenesis | 6.75±0.99 and 8.25±0.56 | both increased c-Met phosphorylation; also recorded: effectively augment c-Met phosphorylation | not statistically different from control treated slices; also recorded: did not significantly increase c-Met receptor phosphorylation | – | – | – | – | – |
| CCCC[C@H](N)C(=O)N[C@@H](Cc1ccc(O)cc1)C(=O)N[C@H](C(=O)N[C@@H](Cc1c[nH]cn1)C(=O)N1CCC[C@H]1C(=O)N[C@@H](Cc1ccccc1)C(=O)O)[C@@H](C)CC [Nle1-AngIV, reference compound] (H-[Nle]YIHPF-OH; N-terminus and C-terminus assumed) | – | dramatic increase in spine numbers | 22 spines per 50 μm dendrite length | 0.87 | greater than 2 fold | 2.6 spines per 50 μm dendrite length | dose-dependently stimulate spinogenesis | – | – | – | – | – | – | – | – |
| HGF: Hepatocyte growth factor, recombinant, purchased from R&D Systems | – | – | – | – | – | – | – | – | both increased c-Met phosphorylation; also recorded: effectively augment c-Met phosphorylation | not statistically different from control treated slices; also recorded: did not significantly increase c-Met receptor phosphorylation | 18.6 spines per 50 μm dendrite leng and 16.5 spines per 50 μm dendrite leng | 24.7 spines per 50 μm dendrite leng | 27.5 spines per 50 μm dendrite leng and 29.3 spines per 50 μm dendrite leng | 27.0 spines per 50 μm dendrite leng | 7.09±0.53 and 9.66±0.20 |
